The test addresses T1, CFTR in F508del/MF-HBE cells (Homo sapiens, UniProt P13569, DEL508-508).
T1 construct: human bronchial epithelial (HBE) cells derived from CF subjects heterozygous for F508del and a minimal function CFTR mutation; endogenous in cells; host or cells: primary human bronchial epithelial cells from CF subjects (F508del/MF-HBE)
The test can be described thus: Ussing chamber assay of CFTR-mediated short-circuit currents (identification of potentiator compounds). The following applies: potentiator incubated 18-24 hours at 37° C. in combination with 10 μM corrector, in the presence of 20% human serum, CFTR-mediated ISC. The format is cell-based. The essentials: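 Short-circuit current was measured in Ussing chambers at 37° C, Vhold 0 mV, 30 μM apical amiloride. CFTR current was defined as the forskolin (20 μM) response relative to the current remaining after BPO/GlyH-101/inhibitor 172 (20 μM each). Before recording, cells had 18-24 h exposure to test potentiators with 10 μM corrector compound in 20% human serum.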

Structures are written as SMILES.

T1 sequence (P13569 with tags, fused parts or gaps DEL508-508): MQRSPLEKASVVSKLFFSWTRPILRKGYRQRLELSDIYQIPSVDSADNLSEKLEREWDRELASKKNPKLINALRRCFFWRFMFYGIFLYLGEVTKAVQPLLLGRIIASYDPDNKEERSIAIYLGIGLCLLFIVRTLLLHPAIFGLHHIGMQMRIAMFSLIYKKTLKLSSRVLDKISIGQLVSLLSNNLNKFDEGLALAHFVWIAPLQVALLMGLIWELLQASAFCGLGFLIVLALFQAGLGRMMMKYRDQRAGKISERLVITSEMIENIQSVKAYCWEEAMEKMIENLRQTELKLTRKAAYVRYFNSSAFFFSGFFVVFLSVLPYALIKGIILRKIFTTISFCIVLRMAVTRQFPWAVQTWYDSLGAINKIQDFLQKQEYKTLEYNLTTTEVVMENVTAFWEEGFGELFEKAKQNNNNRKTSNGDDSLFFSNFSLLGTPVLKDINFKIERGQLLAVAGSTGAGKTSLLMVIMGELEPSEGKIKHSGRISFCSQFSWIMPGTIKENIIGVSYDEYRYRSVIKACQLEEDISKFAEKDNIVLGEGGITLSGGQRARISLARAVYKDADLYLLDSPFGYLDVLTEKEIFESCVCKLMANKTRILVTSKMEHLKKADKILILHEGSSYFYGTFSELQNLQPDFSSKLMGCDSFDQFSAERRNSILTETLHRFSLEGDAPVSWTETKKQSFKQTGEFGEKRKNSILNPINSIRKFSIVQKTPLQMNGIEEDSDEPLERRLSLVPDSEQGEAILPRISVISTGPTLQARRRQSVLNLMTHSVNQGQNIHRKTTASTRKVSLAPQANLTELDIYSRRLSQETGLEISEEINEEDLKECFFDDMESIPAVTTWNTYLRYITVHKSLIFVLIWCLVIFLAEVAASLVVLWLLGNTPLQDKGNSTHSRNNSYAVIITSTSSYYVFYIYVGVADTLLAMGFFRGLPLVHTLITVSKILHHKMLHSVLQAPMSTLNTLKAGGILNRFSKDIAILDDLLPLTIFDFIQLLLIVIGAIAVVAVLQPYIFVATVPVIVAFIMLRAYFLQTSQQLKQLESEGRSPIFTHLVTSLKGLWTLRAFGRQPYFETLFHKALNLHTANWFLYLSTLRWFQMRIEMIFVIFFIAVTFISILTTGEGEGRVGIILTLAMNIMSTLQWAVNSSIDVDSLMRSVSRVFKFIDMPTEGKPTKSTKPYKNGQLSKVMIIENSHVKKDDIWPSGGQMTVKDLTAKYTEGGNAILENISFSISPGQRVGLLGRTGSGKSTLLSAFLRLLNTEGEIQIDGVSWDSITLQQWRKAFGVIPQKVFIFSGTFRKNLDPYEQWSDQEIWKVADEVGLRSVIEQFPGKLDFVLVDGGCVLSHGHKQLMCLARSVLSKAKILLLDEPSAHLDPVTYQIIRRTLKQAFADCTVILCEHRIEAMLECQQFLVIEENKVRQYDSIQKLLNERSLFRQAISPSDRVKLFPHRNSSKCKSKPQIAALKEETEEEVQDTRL

In general, EC50 refers to the concentration needed to bring the measured effect to its halfway point. Regarding `C[C@H]1C[C@H](c2ccc(CN3CCCCC[C@](O)(C(F)(F)F)C4=NN=C(O4)c4nc(c(C(F)(F)F)cc4N)C3=O)cc2)C1` [Compound 183, (6R)-17-amino-6-hydroxy-12-({4-[trans-3-methylcyclobutyl]phenyl}methyl)-6,15-bis (trifluoromethyl)-19-oxa-3,4,12,18-tetraazatricyclo [12.3.1.12,5] nonadeca-1(18),2,4,14,1 6-pentaen-13-one], the 50% effective concentration (EC50) was less than 500 nM.

Turning to `CC(C)(C)c1cccc(CN2CCCCC[C@](O)(C(F)(F)F)C3=NN=C(O3)c3nc(c(C(F)(F)F)cc3N)C2=O)n1` [Compound 184, (6R)-17-amino-12-[(6-tert-butyl-2-pyridyl)methyl]-6-hydroxy-6,15-bis (trifluoromethyl)-19-oxa-3,4,12,18-tetrazatricyclo [12.3.1.12,5] nonadeca-1(18),2,4,14,1 6-pentaen-13-one], the EC50 is less than 500 nM.

`Nc1cc(C(F)(F)F)c2nc1-c1nnc(o1)[C@@](O)(C(F)(F)F)CCCCCN(Cc1cccc(N3CCCCC3)n1)C2=O` [Compound 185, (6R)-17-amino-6-hydroxy-12-[[6-(1-piperidyl)-2-pyridyl]methyl]-6,15-bis (trifluoromethyl)-19-oxa-3,4,12,18-tetrazatricyclo [12.3.1.12,5] nonadeca-1(18),2,4,14,1 6-pentaen-13-one]: the EC50 is less than 500 nM.

As for `Nc1cc(C(F)(F)F)c2nc1-c1nnc(o1)[C@@](O)(C(F)(F)F)CCCCCN(Cc1cccc(OCC(F)(F)F)c1)C2=O` [Compound 186, (6R)-17-amino-6-hydroxy-12-[[3-(2,2,2-trifluoroethoxy)phenyl]methyl]-6,15-bis (trifluoromethyl)-19-oxa-3,4,12,18-tetrazatricyclo [12.3.1.12,5] nonadeca-1(18),2,4,14,1 6-pentaen-13-one], the EC50 was less than 500 nM.

On to `Nc1cc(C(F)(F)F)c2nc1-c1nnc(o1)[C@@](O)(C(F)(F)F)CCCCCN(Cc1ccc(N3CCCCC3)nc1)C2=O` [Compound 187, (6R)-17-amino-6-hydroxy-12-[[6-(1-piperidyl)-3-pyridyl]methyl]-6,15-bis (trifluoromethyl)-19-oxa-3,4,12,18-tetrazatricyclo [12.3.1.12,5] nonadeca-1(18),2,4,14,1 6-pentaen-13-one], for which the EC50 is less than 500 nM.

As for `Nc1cc(C(F)(F)F)c2nc1-c1nnc(o1)[C@@](O)(C(F)(F)F)CCCCCNC2=O` [Compound 188, (6R)-17-amino-6-hydroxy-6,15-bis(trifluoromethyl)-19-oxa-3,4,12,18-tetrazatricyclo[12.3.1.12,5]nonadeca-1(18),2,4,14,16-pentaen-13-one], the concentration for a half-maximal effect (EC50) is less than 500 nM.

Take `Nc1cc(C(F)(F)F)c2nc1-c1nnc(o1)[C@](O)(C(F)(F)F)CCCCCNC2=O` [Compound 189, (6S)-17-amino-6-hydroxy-6,15-bis(trifluoromethyl)-19-oxa-3,4,12,18-tetrazatricyclo[12.3.1.12,5]nonadeca-1(18),2,4,14,16-pentaen-13-one]: the concentration giving a half-maximal response (EC50) was greater than 1000 nM.

Take `CC(=O)N1CC2(CC(N3CCCCC[C@](O)(C(F)(F)F)C4=NN=C(O4)c4nc(c(C(F)(F)F)cc4N)C3=O)C2)C1` [Compound 190, (6R)-12-(2-acetyl-2-azaspiro[3.3]heptan-6-yl)-17-amino-6-hydroxy-6,15-bis(trifluoromethyl)-19-oxa-3,4,12,18-tetrazatricyclo[12.3.1.12,5]nonadeca-1(18),2,4,14,16-pentaen-13-one]: the concentration giving a half-maximal response (EC50) was greater than 1000 nM.

`Nc1cc(C(F)(F)F)c2nc1-c1nnc(o1)[C@@](O)(C(F)(F)F)CCCCCN(C1CC3(C1)CN(C(=O)C1CC1)C3)C2=O` [Compound 191, (6R)-17-amino-12-[2-(cyclopropanecarbonyl)-2-azaspiro[3.3]heptan-6-yl]-6-hydroxy-6,15-bis(trifluoromethyl)-19-oxa-3,4,12,18-tetrazatricyclo[12.3.1.12,5]nonadeca-1(18),2,4,14,16-pentaen-13-one]: the concentration giving a half-maximal response (EC50) was greater than 1000 nM.

Take `NC[C@H]1CC[C@H](N2CCCCC[C@](O)(C(F)(F)F)C3=NN=C(O3)c3nc(c(C(F)(F)F)cc3N)C2=O)CC1` [Compound 192, (6R)-17-amino-6-hydroxy-12-[trans-4-(aminomethyl)cyclohexyl]-6,15-bis(trifluoromethyl)-19-oxa-3,4,12,18-tetraazatricyclo[12.3.1.12,5]nonadeca-1(18),2,4,14,16-pentaen-13-one]: the EC50 is greater than 1000 nM.

Consider `N#C[C@H]1CC[C@H](N2CCCCC[C@](O)(C(F)(F)F)C3=NN=C(O3)c3nc(c(C(F)(F)F)cc3N)C2=O)CC1` [Compound 193, trans-4-[(6R)-17-amino-6-hydroxy-13-oxo-6,15-bis(trifluoromethyl)-19-oxa-3,4,12,18-tetraazatricyclo[12.3.1.12,5]nonadeca-1(18),2,4,14,16-pentaen-12-yl]cyclohexane-1-carbonitrile], for which the EC50 is less than 500 nM.

Regarding `Nc1cc(C(F)(F)F)c2nc1-c1nnc(o1)[C@@](O)(C(F)(F)F)CCCCCN(Cc1ccc(C34CC(C3)C4)cc1)C2=O` [Compound 195, (6R)-17-amino-12-[[4-(1-bicyclo[1.1.1]pentanyl)phenyl]methyl]-6-hydroxy-6,15-bis(trifluoromethyl)-19-oxa-3,4,12,18-tetrazatricyclo[12.3.1.12,5]nonadeca-1(18),2,4,14,16-pentaen-13-one], the EC50 is less than 500 nM.

Turning to `Nc1cc(C(F)(F)F)c2nc1-c1nnc(o1)[C@@](O)(C(F)(F)F)CCCCCN([C@H]1CC[C@@H](C(F)(F)F)CC1)C2=O` [Compound 208, (6R)-17-amino-6-hydroxy-12-[(1s,4s)-4-(trifluoromethyl)cyclohexyl]-6,15-bis(trifluoromethyl)-19-oxa-3,4,12,18-tetraazatricyclo [12.3.1.12,5] nonadeca-1(18),2,4,14,16-pentaen-13-one], the EC50 was less than 500 nM.

Regarding `Nc1cc(C(F)(F)F)c2nc1-c1nnc(o1)[C@@](O)(C(F)(F)F)CCCCCN([C@H]1CC[C@H](C(F)(F)F)CC1)C2=O` [Compound 209, (6R)-17-amino-6-hydroxy-12-[(1r,4r)-4-(trifluoromethyl)cyclohexyl]-6,15-bis(trifluoromethyl)-19-oxa-3,4,12,18-tetraazatricyclo [12.3.1.12,5] nonadeca-1(18),2,4,14,16-pentaen-13-one], the concentration giving a half-maximal response (EC50) is less than 500 nM.

Consider `Nc1cc(C(F)(F)F)c2nc1-c1nnc(o1)[C@@](O)(C(F)(F)F)CCCCCN(C13CCC(CC1)CC3)C2=O` [Compound 210, (6R)-17-amino-12-(1-bicyclo[2.2.2]octanyl)-6-hydroxy-6,15-bis(trifluoromethyl)-19-oxa-3,4,12,18-tetrazatricyclo [12.3.1.12,5] nonadeca-1(18),2,4,14,16-pentaen-13-one], for which the EC50 is less than 500 nM.

Take `COC12CCC(N3CCCCC[C@](O)(C(F)(F)F)c4nnc(o4)-c4nc(c(C(F)(F)F)cc4N)C3=O)(CC1)C2` [Compound 211, (6R)-17-amino-6-hydroxy-12-(4-methoxynorbornan-1-yl)-6,15-bis(trifluoromethyl)-19-oxa-3,4,12,18-tetrazatricyclo [12.3.1.12,5] nonadeca-1(18),2,4,14,16-pentaen-13-one]: the EC50 is less than 500 nM.

On to `Cc1cccc(CN2CCCCC[C@](O)(C(F)(F)F)C3=NN=C(O3)c3nc(c(C(F)(F)F)cc3N)C2=O)c1` [Compound 212, (6R)-17-amino-6-hydroxy-12-(m-tolylmethyl)-6,15-bis(trifluoromethyl)-19-oxa-3,4,12,18-tetrazatricyclo [12.3.1.12,5] nonadeca-1(18),2,4,14,16-pentaen-13-one], for which the EC50 is less than 500 nM.

For the molecule `CC(C)(C)CCN1CCCCC[C@](O)(C(F)(F)F)C2=NN=C(O2)c2nc(c(C(F)(F)F)cc2N)C1=O` [Compound 213, (6R)-17-amino-12-(3,3-dimethylbutyl)-6-hydroxy-6,15-bis(trifluoromethyl)-19-oxa-3,4,12,18-tetrazatricyclo [12.3.1.12,5] nonadeca-1(18),2,4,14,16-pentaen-13-one], the EC50 is less than 500 nM.

In the case of `Nc1cc(C(F)(F)F)c2nc1-c1nnc(o1)[C@@](O)(C(F)(F)F)CCCCCN(Cc1ccc(C3(C(F)(F)F)CC3)cn1)C2=O` [Compound 214, (6R)-17-amino-6-hydroxy-6,15-bis(trifluoromethyl)-12-[[5-[1-(trifluoromethyl)cyclopropyl]-2-pyridyl]methyl]-19-oxa-3,4,12,18-tetrazatricyclo [12.3.1.12,5] nonadeca-1(18),2,4,14,16-pentaen-13-one], the EC50 was less than 500 nM.

Regarding `Nc1cc(C(F)(F)F)c2nc1-c1nnc(o1)[C@@](O)(C(F)(F)F)CCCCCN(Cc1cccc(Br)c1)C2=O` [Compound 216, (6R)-17-amino-12-[(3-bromophenyl)methyl]-6-hydroxy-6,15-bis(trifluoromethyl)-19-oxa-3,4,12,18-tetrazatricyclo [12.3.1.12,5] nonadeca-1(18),2,4,14,16-pentaen-13-one], the EC50 is less than 500 nM.

Regarding `Nc1cc(C(F)(F)F)c2nc1-c1nnc(o1)[C@@](O)(C(F)(F)F)CCCCCN(Cc1ccc(C3CC3)cc1)C2=O` [Compound 217, (6R)-17-amino-12-[(4-cyclopropylphenyl)methyl]-6-hydroxy-6,15-bis(trifluoromethyl)-19-oxa-3,4,12,18-tetrazatricyclo [12.3.1.12,5] nonadeca-1(18),2,4,14,16-pentaen-13-one], the EC50 is less than 500 nM.

Turning to `CC(C)(C1CC1)N1CCCCC[C@](O)(C(F)(F)F)C2=NN=C(O2)c2nc(c(C(F)(F)F)cc2N)C1=O` [Compound 218, (6R)-17-amino-12-(1-cyclopropyl-1-methyl-ethyl)-6-hydroxy-6,15-bis(trifluoromethyl)-19-oxa-3,4,12,18-tetrazatricyclo [12.3.1.12,5] nonadeca-1(18),2,4,14,16-pentaen-13-one], the half-maximal effective concentration (EC50) was less than 500 nM.

The values above are taken from US20250122218A1, “MODULATORS OF CYSTIC FIBROSIS TRANSMEMBRANE CONDUCTANCE REGULATOR” (Vertex Pharmaceuticals Incorporated, priority 2022, published 2025).
